Measurements reported in US10966951B2, “Compositions and methods for lowering triglycerides in a subject having reduced kidney function” (Amarin Pharmaceuticals Ireland Limited, priority 2017, dated 2021).

Columns and labels:
Type in all cases: in vivo, human
[1] = tested on: subjects with Age-Associated Memory Impairment; test: Safety and tolerability, 6-week AAMI study (Example 2)
Procedure: Ninety-four subjects were randomized into one of six groups: 1 g E-EPA daily (n=23), 2 g E-EPA daily (n=24), 4 g E-EPA daily (n=24), 1 g placebo daily (n=7), 2 g placebo daily (n=8), and 4 g placebo daily (n=8).
All randomized subjects that received at least 1 dose of study medication were included in the Safety Population.
Safety evaluations were based on the safety population. Safety and tolerability were assessed in terms of AEs, vital signs, 12-lead ECG, clinical laboratory data, medical history, and study drug compliance. Safety and tolerability data were presented by treatment group.

[2] = tested on: patients with reduced kidney function (eGFR<90 mL/min/1.73 m^2) and diabetes mellitus; test: Post-hoc ANCHOR analysis, reduced kidney function and diabetes mellitus (Example 5); conditions: 4 g/day
Procedure: CVD-related (e.g., atherogenic) parameters were analyzed in a post-hoc study of 198 patients from the multi-center, placebo-controlled, randomized double-blind, 12-week study described in Example 1. These 198 patients have reduced kidney function (e.g., eGFR<90 mL/min/1.73 m^2 for ≥3 months) and diabetes mellitus.
98 patients were randomized to E-EPA and 100 patients were randomized to placebo. In total, atherogenic parameters were analyzed in all 198 patients, 56% of which were male and 97% of which were white. The mean age of the 198 patients was 63 years old.
(§1) The primary objective of this post-hoc study was to determine if and how 4 g of daily of >96% E-EPA, compared to placebo, affects patients with reduced kidney function, diabetes mellitus, and high triglyceride levels. The secondary objective was to determine if and how 4 g daily >96% E-EPA, compared to placebo, affected CVD-related parameters in patients having a high risk for CVD and fasting TG levels 200 mg/dL and <500 mg/dL, despite treatment to LDL-C goal on statin therapy. These CVD-parameters include lipid levels, lipoprotein levels, and inflammatory markers, such as TC, LDL-C, HDL-C, vLDL-C, vLDL-TG, RLP-C, non-HDL-C, Apo B, Apo C-III, Lp-PLA, hsCRP, and ox-LDL, and in plasma and RBC EPA concentration. CVD-parameters were analyzed for median difference in percent change from baseline to week 12 in subjects receiving 4 g/day of E-EPA and those receiving the placebo.
(§2) The median difference in lipid/lipoprotein, apolipoprotein, and inflammatory parameters were determined from baseline to week 12 for 4/g day of E-EPA compared to placebo.

[3] = tested on: patients with reduced kidney function (eGFR<90 mL/min/1.73 m^2) and hsCRP≥2.0 mg/L; test: Post-hoc ANCHOR analysis, reduced kidney function and hsCRP≥2.0 mg/L (Example 6); conditions: 4 g/day
Procedure: CVD-related (e.g., atherogenic) parameters were analyzed in a post-hoc study of 152 patients from the multi-center, placebo-controlled, randomized double-blind, 12-week study described in Example 1. These 152 patients have reduced kidney function (e.g., eGFR<90 mL/min/1.73 m^2 for ≥3 months) and hsCRP≥2.0 mg/L.
72 patients were randomized to E-EPA and 80 patients were randomized to placebo. In total, atherogenic parameters were analyzed in all 152 patients, 54% of which were male and 99% of which were white. The mean age of the 152 patients was 64 years old.
as §1, with “this post-hoc study, was to” for “this post-hoc study was to”, “kidney function, elevated hsCRP (e.g, hsCRP≥2.0 mg/L), and high” for “kidney function, diabetes mellitus, and high”, “g daily of >96% E-EPA,” for “g daily >96% E-EPA,”, “in patients with a high” for “in patients having a high”
as §2

Structure (SMILES): CC/C=C\C/C=C\C/C=C\C/C=C\C/C=C\CCCC(=O)OCC [E-EPA, ethyl eicosapentaenoate]
- subjects with nausea Possibly Related to the study drug ([1]; 1 g cohort): two
- nausea Probably Related to the study drug ([1]; 1 g, one subject): experienced nausea that was Probably Related to the study drug
- subjects with nausea Possibly Related to the study drug ([1]; 2 g cohort): one
- SAE reported ([1]; 2 g treatment group): One SAE
- subjects discontinued due to TEAEs ([1]; 2 g treatment group): 2 subjects
- relatedness of the SAE (worsening epigastric chest pain) ([1]; 2 g, one subject): unrelated to the study drug
- subjects with nausea Possibly Related to the study drug ([1]; 4 g cohort): two
- diarrhea Probably Related to the study drug ([1]; 4 g, one subject): experienced diarrhea that was Probably Related to the study drug
- TEAEs Definitely Related to the study drug ([1]; all groups): No TEAEs were Definitely Related
- albumin after 12 weeks ([2]; after 12 weeks): 4.5 g/dL
- serum creatinine after 12 weeks ([2]; after 12 weeks): 0.9 mg/dL
- albumin before treatment ([2]; before the 12 weeks): 4.5 g/dL
- eGFR before treatment ([2]; before the 12 weeks): 75.4 mL/min/1.73 m^2
- serum creatinine before treatment ([2]; before the 12 weeks): 0.9 mg/dL
- albumin after 12 weeks ([3]; after 12 weeks): 4.4 g/dL
- serum creatinine after 12 weeks ([3]; after 12 weeks): 0.9 mg/dL
- albumin before treatment ([3]; before the 12 weeks): 4.5 g/dL
- eGFR before treatment ([3]; before the 12 weeks): 72.4 mL/min/1.73 m^2
- serum creatinine before treatment ([3]; before the 12 weeks): 0.9 mg/dL
